Laboratory results: patent publication US10723726B2, “Solid forms of (Z)-4-(5-((3-benzyl-4-oxo-2-thioxothiazolidin-5-ylidene)methyl)furan-2-yl)benzoic acid” (GB006, INC., priority 2015, dated 2020)
In brackets after ≈: the same amount, converted by molar mass. Entries after “also recorded” stand apart in the source; their conditions may differ. Structures can show the parent of a compound that is named as a salt. Where two headings read alike, the source gives them in different places.

Columns and labels:
[1] = Humidity stress at 40° C./75% RH; format: physicochemical; conditions: 5-6 days
Protocol: The larger vials were capped, sealed with Parafilm and placed inside an oven at 40° C. for up to 6 days. Salts were then removed from these conditions and changes observed (e.g. color, deliquescence etc.) before being analyzed for weight change and by XRPD. Samples were examined visually after stressing, form composition confirmed by XRPD analysis and weight change recorded (Table 7).

in vivo = conditions: male, rat; for half-life: t1/2,ß
Protocol: (§1) In a second experiment, the dose solution was prepared in Tween-80 (0.02%) and 0.5% methyl cellulose in Milli-Q water. IP (2 mg/kg) and IV (1 mg/kg) dose solutions were prepared in a 5% DMSO and 95% PEG-200.
(§2) The PO (2 mg/kg) dose solution was prepared in Tween-80 (0.02%) and 0.5% methyl cellulose in Milli-Q water. The IV (1 mg/kg) dose solution was prepared in a solution of 5% DMSO and 95% PEG-200.
(§3) The routes of administration were namely PO (gavage), IP (bolus) and IV (bolus through tail vein). A total of four SD male rats were used aged between 5-6 weeks. The feeding regimen included 12 h fasting and the feed was provided 2 hrs after the dosage inoculation and water was provided ad libidum. The blood collection schedule for PO/IP was at 0.25, 0.5, 1, 2, 4, 8, 10 and 24 h, and for IV it was at 0.12, 0.25, 0.5, 1, 2, 4, 8 and 24 h. For PO dosage, tween-80 (0.02%) and 0.5% methyl cellulose prepared in milli-Q water were used as vehicles; for IP and IV dosage 5% DMSO and 95% PEG-200 were used as vehicles.
(§4) Stock solution (178 μg/mL) in methanol was further diluted using methanol: water (80:20, v/v) to obtain working solutions in the range of 10.4 to 20745 ng/mL.
(§5) 50 μL of sample was aliquoted in to pre-labeled vials. To it was added 200 μL of 10% tetrahydrofuran containing IS (100 ng/mL; tolbutamide) and mixed well, vortexed for 5 min followed by centrifugation for 5 min at 14000 rpm for at 4° C. Supernatant was separated and 5 μL of same was injected on LC-MS/MS.
(§6) Data Analysis: Individual concentration-time data were analyzed using WinNonlin (Version 5.3) by non-compartmental analysis (NCA) method.
(§7) The routes of administration were namely PO (gavage) and IV (bolus through tail vein). A total of four SD male rats were used aged between 5-6 weeks. The feeding regimen included 12 h fasting and the feed was provided 2 hrs after the dosage inoculation and water was provided ad libitum. The blood collection schedule for PO was at 0.25, 0.5, 1, 2, 4, 8, 10 and 24 h, and for IV it was at 0.12, 0.25, 0.5, 1, 2, 4, 8 and 24 h. For PO dosage, tween-80 (0.02%) and 0.5% methyl cellulose prepared in milli-Q water were used as vehicles; for IV dosage 10% DMSO and 90% PEG-200 were used as vehicles.

[2] = in vivo
Protocol: as §1, §2, §3, §4, §5, §6, §7

adenosine A2A receptor = adenosine A2A receptor (Homo sapiens, UniProt P29274); test: Adenosine A2A receptor agonist assay
Chain of adenosine A2A receptor (P29274 whole entry): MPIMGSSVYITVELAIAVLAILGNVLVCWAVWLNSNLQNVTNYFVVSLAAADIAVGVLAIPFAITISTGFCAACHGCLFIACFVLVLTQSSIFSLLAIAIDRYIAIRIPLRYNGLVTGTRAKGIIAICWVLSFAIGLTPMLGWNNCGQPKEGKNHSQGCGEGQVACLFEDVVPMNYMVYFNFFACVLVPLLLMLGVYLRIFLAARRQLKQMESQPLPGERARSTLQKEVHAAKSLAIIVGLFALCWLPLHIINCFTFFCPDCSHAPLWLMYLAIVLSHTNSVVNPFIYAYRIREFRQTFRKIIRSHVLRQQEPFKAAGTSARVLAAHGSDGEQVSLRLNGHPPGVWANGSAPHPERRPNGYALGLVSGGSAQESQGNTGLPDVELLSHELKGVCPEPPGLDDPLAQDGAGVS

[3] = rats; cited from earlier work
[4] = Rat PK of LA1 free acid, first experiment (2-hydroxypropyl-β-cyclodextrin dose solution); format: in vivo, Sprague Dawley (SD) rats; conditions: 30% 2-hydroxypropyl-β-cyclodextrin in PBS
Protocol: In a first experiment, the dose solution was prepared in 30% w:v 2-hydroxypropyl-β-cyclodextrin prepared in PBS at 2 mg/kg. Improved bioavailability was needed.

physchem = test: physchem
From the text: A limited salt screen was previously conducted using five inorganic counter-ions (Na, K, NH4, Ca and Mg).

[5] = mouse, in vivo, po
From the text: Mice were inoculated with B16F10 tumors as described above. Once the tumor volume reached around 45 mm^3, animals were randomized into various groups with 10 animals in all the groups so that the average tumor volume of each group was similar.
LA1 was combined with a solution containing 5% DMSO, 5% Solutol:ethanol (1:1), 20% Tween20, and 70% N-saline.

glucocorticoid receptor = target: T1, glucocorticoid receptor (Homo sapiens, UniProt P04150); test: Glucocorticoid receptor agonist assay
T1 sequence (P04150 1-777): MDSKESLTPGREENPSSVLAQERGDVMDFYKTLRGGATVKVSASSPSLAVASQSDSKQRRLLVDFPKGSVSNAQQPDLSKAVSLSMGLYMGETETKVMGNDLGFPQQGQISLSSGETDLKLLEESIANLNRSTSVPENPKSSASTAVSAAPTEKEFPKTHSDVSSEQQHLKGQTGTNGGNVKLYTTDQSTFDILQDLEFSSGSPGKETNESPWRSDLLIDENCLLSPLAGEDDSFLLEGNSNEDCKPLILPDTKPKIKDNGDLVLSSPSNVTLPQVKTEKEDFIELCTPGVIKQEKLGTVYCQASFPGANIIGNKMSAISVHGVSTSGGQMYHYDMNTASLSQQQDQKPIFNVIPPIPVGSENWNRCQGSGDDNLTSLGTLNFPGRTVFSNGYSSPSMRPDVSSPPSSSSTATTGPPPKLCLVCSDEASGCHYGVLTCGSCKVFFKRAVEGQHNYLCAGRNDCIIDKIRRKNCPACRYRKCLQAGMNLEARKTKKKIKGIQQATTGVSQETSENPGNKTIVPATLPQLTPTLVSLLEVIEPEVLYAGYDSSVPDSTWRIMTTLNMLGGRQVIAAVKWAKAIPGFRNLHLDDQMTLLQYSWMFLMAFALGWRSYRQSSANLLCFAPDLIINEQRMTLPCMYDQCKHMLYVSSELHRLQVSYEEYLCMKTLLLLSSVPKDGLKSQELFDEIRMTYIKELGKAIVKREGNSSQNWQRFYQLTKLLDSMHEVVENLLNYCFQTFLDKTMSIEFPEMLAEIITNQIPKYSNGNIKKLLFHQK

[6] = male, Sprague Dawley, rat, ip, 2 mg/kg
[7] = male, Sprague-Dawley, rat, ip, 2 mg/kg
[8] = male, Sprague-Dawley, rat, iv, 1 mg/kg
[9] = male, Sprague-Dawley, rat, po, 2 mg/kg
[10] = Sprague Dawley, in vivo, PO 2 mg/kg

Structure (SMILES): O=C(O)c1ccc(-c2ccc(/C=C3\SC(=S)N(Cc4ccccc4)C3=O)o2)cc1 [LA1 choline salt]
- Weight gain (%) [1]: 8.9%
- XRPD after stressing [1]: phase change; also recorded: New pattern (Q)
- bioavailability (in vivo; Sprague-Dawley, F (absolute oral bioavailability)): 41%
- MRT (in vivo; Sprague-Dawley, po, 2 mg/kg, MRT): 1.81 h
- half-life (in vivo; Sprague-Dawley, po, 2 mg/kg): 94.2 min
- Tmax (in vivo; Sprague-Dawley, po, 2 mg/kg): 30 min
- Rat Cl ([2]; male, Sprague Dawley, iv, 1 mg/kg): 17.6 mL/min/kg
- Vss ([2]; male, Sprague Dawley, rat): 0.73 L/kg
- MRT [2, 6]: 1.02 h
- Rat Cl ([2]; male, Sprague-Dawley): 18 mL/min/kg
- Rat Cl ([2]; male, Sprague-Dawley, iv, 1 mg/kg): 17.6 mL/min/kg
- % F (absolute IP bioavailability) ([2]; male, Sprague-Dawley, rat): 84%
- Vss ([2]; male, Sprague-Dawley, rat): 0.73 L/kg
- AUC0-t [2, 7]: 1657 ng·h/mL
- AUC0-∞ [2, 7]: 1666 ng·h/mL
- MRT [2, 7]: 1.02 h
- Tlast [2, 7]: 10.0 h
- Tmax [2, 7]: 15 min
- AUC0-t [2, 8]: 985 ng·h/mL
- AUC0-∞ [2, 8]: 993 ng·h/mL
- C0 [2, 8]: 1856 ng/mL
- MRT [2, 8]: 0.72 h
- Tlast [2, 8]: 7.00 h
- Vd [2, 8]: 1.78 L/kg
- AUC0-t [2, 9]: 808 ng·h/mL
- AUC0-∞ [2, 9]: 814 ng·h/mL
- Tlast [2, 9]: 10.0 h

Structure (SMILES): O=C(O)c1ccc(-c2ccc(/C=C3\SC(=S)N(Cc4ccccc4)C3=O)o2)cc1 [LA1, (Z)-4-(5-((3-benzyl-4-oxo-2-thioxothiazolidin-5-ylidene)methyl)furan-2-yl)benzoic acid]
- efficacy in adenosine A2A receptor agonist assay (adenosine A2A receptor): shown efficacy
- neointimal thickening upon vascular injury [3]: reduce neointimal thickening
- Rat Cl ([4]; PO - 2 mg/kg table): 11.1 mL/min/kg
- Vss ([4]; PO - 2 mg/kg table): 0.59 L
- AUC [4, 10]: 8.7 µM·h
- MRT [4, 10]: 3.49 h
- half-life [4, 10]: 122 min
- bioavailability ([4]; Sprague Dawley, in vivo, PO 2 mg/kg, read-out: Rat F %): 15.1%
- clearance (in vivo; Sprague Dawley, iv, 1 mg/kg, Rat Cl (ml/min/kg)): 19.7 mL/min/kg
- bioavailability (in vivo; Sprague-Dawley, % F (absolute IP bioavailability)): 82%
- clearance (in vivo; Sprague-Dawley, Rat Cl (ml/min/kg)): 20 mL/min/kg
- bioavailability (in vivo; Sprague-Dawley, ip, 2 mg/kg, % F (absolute IP bioavailability)): 81.6%
- AUC (in vivo; Sprague-Dawley, ip, 2 mg/kg, AUC in mM*hr): 3.5 µM·h
- Tmax (in vivo; Sprague-Dawley, ip, 2 mg/kg): 15 min
- AUC0-t (in vivo; Sprague-Dawley, iv, 1 mg/kg, AUC0-t): 903 ng·h/mL
- AUC(0-inf) (in vivo; Sprague-Dawley, iv, 1 mg/kg, AUC0-∞): 918 ng·h/mL
- clearance (in vivo; Sprague-Dawley, iv, 1 mg/kg, CL): 19.7 mL/min/kg
- Cmax (in vivo; Sprague-Dawley, iv, 1 mg/kg, Cmax): 952 ng/mL
- clearance (in vivo; Sprague-Dawley, iv, 1 mg/kg, Rat Cl (ml/min/kg)): 19.7 mL/min/kg
- Vd (in vivo; Sprague-Dawley, iv, 1 mg/kg, Vd): 2.39 L/kg
- half-life (in vivo; Sprague-Dawley, iv, 1 mg/kg): 69.6 min
- solubility (physchem): 0.78 µg/mL (≈ 1.85 µM)
- exposure in blood at end of study [5]: below the limit of quantitation
- exposure in tumor at end of study [5]: below the limit of quantitation
- efficacy in glucocorticoid receptor agonist assay (glucocorticoid receptor): shown efficacy
- Rat F % ([2]; po, 2 mg/kg): Exposure too low
- Vss ([2]; male, Sprague Dawley, rat): 4.19 L/kg
- MRT [2, 6]: 3.44 h
- Vss ([2]; male, Sprague-Dawley, rat): 4.19 L/kg
- AUC0-t [2, 7]: 1481 ng·h/mL
- AUC0-∞ [2, 7]: 1499 ng·h/mL
- MRT [2, 7]: 3.44 h
- Tlast [2, 7]: 20.5 h
- C0 [2, 8]: 1317 ng/mL
- MRT [2, 8]: 3.38 h
- Tlast [2, 8]: 20.0 h
- MRT (hr) ([2]; rat, po, 2 mg/kg): Exposure too low
